14 compounds from PubChem BioAssay (NCI) can be followed below.

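Dose response: 5 concentrations. Exposure: 48 h. Format: 96-well plates. Endpoint: linear interpolation; highest concentration if not reached. TGI denotes the concentration required for complete inhibition of growth.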

Test systems include KM12 colon; 786-0 renal; MDA-N; ACHN renal; SF-539 CNS; SF-268 CNS; COLO 205 colon; DU-145 prostate; HCT-116 colon; IGROV1 ovarian; NCI-H226 lung.
Common to all, as to assay: inhibition of tumour cell growth, NCI panel, 48 h

As to `Cc1c(O)c(=O)ccn1CCc1ccc(O)cc1`, the TGI in the experiment on KM12 colon was over 100 µM; with 786-0 renal it was 27.8 µM; in the experiment with MDA-N, over 100 µM; in the experiment with ACHN renal, over 100 µM; with SF-539 CNS, 62.5 µM; with SF-268 CNS it was 33.3 µM. Further, the TGI with COLO 205 colon, in the experiment with DU-145 prostate and with HCT-116 colon was over 100 µM throughout.

On to `COC(=O)c1cc(/C=C\c2cc(OC)ccc2OC)ccc1OC`, for which the TGI with KM12 colon is over 100 µM; in the experiment on 786-0 renal, over 100 µM; with MDA-N it was over 100 µM; with IGROV1 ovarian, 42.2 µM; in the experiment with ACHN renal, over 100 µM; with SF-539 CNS, over 100 µM. Further, the TGI in the experiment with SF-268 CNS is over 100 µM; in the experiment with COLO 205 colon, 59.7 µM; with DU-145 prostate, over 100 µM; with HCT-116 colon, over 100 µM.

As for `CCOC(=O)c1cc(Br)c(-c2cc(C)co2)[nH]1`, the TGI in the experiment with KM12 colon, in the experiment with 786-0 renal, in the experiment with NCI-H226 lung, with MDA-N, in the experiment on IGROV1 ovarian and in the experiment on SF-539 CNS was over 100 µM each time. In addition, the TGI in the experiment with SF-268 CNS, in the experiment on COLO 205 colon, in the experiment on DU-145 prostate and in the experiment with HCT-116 colon was over 100 µM in each case.

Regarding `O=C(Nc1ccc(Cl)cc1)c1cc(S(=O)(=O)Nc2n[nH]c(=O)n2-c2ccccc2)c(S)cc1Cl`, the TGI with KM12 colon, in the experiment on 786-0 renal, in the experiment with NCI-H226 lung, in the experiment with IGROV1 ovarian, in the experiment with SF-539 CNS and in the experiment with SF-268 CNS was over 100 µM throughout. Besides, the TGI with COLO 205 colon, with DU-145 prostate and in the experiment on HCT-116 colon was over 100 µM throughout.

As to `CC(C)=NOC(=O)Nc1cccc2c1OCO2`, the TGI in the experiment on KM12 colon, in the experiment on 786-0 renal, with NCI-H226 lung, in the experiment with IGROV1 ovarian, in the experiment with ACHN renal and with SF-539 CNS was over 100 µM in each case. The TGI in the experiment with SF-268 CNS, in the experiment with COLO 205 colon, in the experiment with DU-145 prostate and with HCT-116 colon was over 100 µM in each case.

With `Clc1cc2nnn(C3CCCO3)c2cc1Cl` (centres undefined), the TGI in the experiment on 786-0 renal, in the experiment on NCI-H226 lung, in the experiment with MDA-N, in the experiment on IGROV1 ovarian, with SF-539 CNS and with SF-268 CNS was over 100 µM in each case. Besides, the TGI with COLO 205 colon, with DU-145 prostate and with HCT-116 colon was over 100 µM throughout.

Turning to `CC1(C)CC(=O)C2=C(C1)OC1(CC2c2ccc(Cl)cc2)CC(c2ccc(Cl)cc2)C2=C(CC(C)(C)CC2=O)O1` (centres undefined), the TGI in the experiment with KM12 colon is 40.6 µM; in the experiment on 786-0 renal, 35.9 µM; in the experiment on NCI-H226 lung, 42.1 µM; in the experiment on IGROV1 ovarian, 33.4 µM; with ACHN renal, 38.9 µM; with SF-539 CNS, over 51.3 µM. Further, the TGI in the experiment with SF-268 CNS was 42 µM; with COLO 205 colon, 36.6 µM; in the experiment with DU-145 prostate it was 46.4 µM; with HCT-116 colon, over 48.9 µM.

For `CCOC(C)OC1CC(n2cc(C)c(=O)[nH]c2=O)OC1CO` (centres undefined), the TGI in the experiment with KM12 colon, in the experiment with NCI-H226 lung, with IGROV1 ovarian, with ACHN renal, with SF-539 CNS and in the experiment with SF-268 CNS was over 100 µM throughout. In addition, the TGI in the experiment with COLO 205 colon and with HCT-116 colon was over 100 µM in each case.

In the case of `COc1ccc(CNc2nc3ccccc3nc2C(=O)O)cc1`, the TGI in the experiment with KM12 colon, with 786-0 renal, in the experiment with NCI-H226 lung, in the experiment with MDA-N, in the experiment on IGROV1 ovarian and with SF-539 CNS was over 100 µM each time. Moreover, the TGI with SF-268 CNS, with COLO 205 colon, in the experiment with DU-145 prostate and in the experiment with HCT-116 colon was over 100 µM in each case.

As for `CCCCC[C@H]1CCCCCCCCCC(=O)OC2C(O[C@@H]3OC(C)[C@H](OC(=O)[C@@H](C)CC)C(O[C@@H]4OC(C)[C@H](O)C(O)[C@@H]4O)[C@@H]3OC(=O)[C@H](C)CC)[C@H](OC3C(O)[C@@H](O)C(C)O[C@H]3O1)OC(CO)[C@H]2O` (some centres undefined), the TGI with KM12 colon stood at 35.8 µM; in the experiment with 786-0 renal it was 31.7 µM; in the experiment on MDA-N, 31.4 µM; in the experiment with IGROV1 ovarian it was 31.8 µM; in the experiment on SF-268 CNS, 33.4 µM; in the experiment with COLO 205 colon, 25 µM. The TGI in the experiment with DU-145 prostate turned out to be 30 µM; in the experiment with HCT-116 colon it was 29.7 µM.

Turning to `CN/N=C(\C(=O)Nc1ccc(C)c(C)c1)C(C(=O)OC)c1nc2ccc([N+](=O)[O-])cc2[nH]c1=O` (centres undefined), the TGI with KM12 colon, in the experiment with NCI-H226 lung, with IGROV1 ovarian, in the experiment with ACHN renal, in the experiment on SF-539 CNS and with SF-268 CNS was over 100 µM each time. In addition, the TGI with COLO 205 colon and in the experiment on HCT-116 colon was over 100 µM throughout.

For `O=c1[nH]nc(-c2ccccc2)n1-n1cnnc1`, the TGI with KM12 colon, in the experiment on 786-0 renal, in the experiment with NCI-H226 lung, in the experiment with MDA-N, with IGROV1 ovarian and with ACHN renal was over 100 µM each time. Moreover, the TGI in the experiment with SF-539 CNS, with SF-268 CNS, with COLO 205 colon and in the experiment on HCT-116 colon was over 100 µM each time.

Turning to `O=C(O)c1ccc(N/C(=C(/C(Cl)=C(Cl)Cl)[N+](=O)[O-])n2nnc3ccccc32)cc1`, the TGI with KM12 colon, in the experiment on 786-0 renal, with NCI-H226 lung, in the experiment with MDA-N, with ACHN renal and with SF-539 CNS was over 100 µM each time. In addition, the TGI with SF-268 CNS, with COLO 205 colon and in the experiment on HCT-116 colon was over 100 µM each time.

For `O=C1CC(c2ccccc2)S(=O)c2ccccc2N1` (centres undefined), the TGI in the experiment on KM12 colon, with 786-0 renal, with NCI-H226 lung, in the experiment with IGROV1 ovarian, in the experiment on ACHN renal and with SF-268 CNS was over 100 µM in each case. Besides, the TGI in the experiment on COLO 205 colon, in the experiment with DU-145 prostate and in the experiment on HCT-116 colon was over 100 µM throughout.
